“And” between values parts separate entries of the source, which are not always exact repeats. Identical values can stand only once.
Assays:
[1] = Pharmacokinetics of meptazinol or meptazinol PABA carbamate, dogs (Example 27); assay type: in vivo, dog; details: for Vd: read-out: Vss; for Fabs: meptazinol
From the text: The results are given in Tables 8 to 11 and shown graphically in FIG. 2.

[2] = target: T1, Acetylcholinesterase (h), human recombinant (HEK-293 cells) (Homo sapiens, UniProt P22303); experiment: Human acetylcholine esterase inhibition (Example 31); assay type: biochemical; details: AMTCh 50 μM, 30 min./37° C., photometry; read-out: apparent IC50
T1 construct: host or cells: HEK-293 cells
T1 sequence (P22303 32-614): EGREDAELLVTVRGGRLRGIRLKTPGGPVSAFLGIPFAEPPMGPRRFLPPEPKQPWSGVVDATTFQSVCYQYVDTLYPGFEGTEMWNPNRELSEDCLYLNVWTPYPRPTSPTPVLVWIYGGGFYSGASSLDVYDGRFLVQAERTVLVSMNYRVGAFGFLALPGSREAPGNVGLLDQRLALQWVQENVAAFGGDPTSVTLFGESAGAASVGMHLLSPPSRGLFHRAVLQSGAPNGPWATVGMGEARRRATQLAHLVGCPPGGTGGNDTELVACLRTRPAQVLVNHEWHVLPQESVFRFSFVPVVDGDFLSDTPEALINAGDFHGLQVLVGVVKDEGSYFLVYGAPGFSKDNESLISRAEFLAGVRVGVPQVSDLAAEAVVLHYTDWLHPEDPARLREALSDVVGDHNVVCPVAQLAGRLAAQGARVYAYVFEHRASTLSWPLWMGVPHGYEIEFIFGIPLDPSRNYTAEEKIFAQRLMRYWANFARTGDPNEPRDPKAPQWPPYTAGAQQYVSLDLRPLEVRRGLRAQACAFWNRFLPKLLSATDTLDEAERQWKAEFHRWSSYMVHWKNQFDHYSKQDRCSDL
Method: The results are expressed as a percent of control specific activity ((measured specific activity/control specific activity)×100) obtained in the presence of the test compounds.
The IC50 values (concentration causing a half-maximal inhibition of control specific activity), and Hill coefficients (nh) were determined by non-linear regression analysis of the inhibition curves generated with mean replicate values using hill equation curve fitting (y=d+[(a−d)/(1+(c/c50)^nh)], where y=specific activity, d=minimum specific activity, a=maximum specific activity, c=compound concentration, C50=IC50, and nh=slope factor).
This analysis was performed using software developed at Cerep (Hill software) and validated by comparison with data generated by the commercial software Sigmaplot® 4.0 for Windows®.

[3] = Norbury et al. (1983); cited from earlier work
[4] = Pharmacokinetics of meptazinol or meptazinol PABA carbamate, monkeys (Example 29); assay type: in vivo, monkey; details: for AUC / C0 / t½ / Cmax / T>50%Cmax / Tmax / half-life: meptazinol in plasma; for Fabs: meptazinol; for Vd: read-out: Vss; for half-life: read-out: t½ (converted)
From the text: The results are given in Tables 15 to 18 and shown graphically in FIG. 4.

[5] = Pharmacokinetics of meptazinol from PABA analogue prodrugs, dogs (Example 26); assay type: in vivo; details: dog, plasma, po, 1 mg/kg
Method: (§1) Blood samples were taken at various times after administration and submitted to analysis for the parent drug and prodrug using a validated LC-MS-MS assay. Pharmacokinetic parameters derived from the plasma analytical data were determined using Win Nonlin.

[6] = Pharmacokinetics of meptazinol from PABA analogue prodrugs, monkeys (Example 26); assay type: in vivo; details: monkey, plasma, po, 2 mg/kg
Method: as §1

[7] = Pharmacokinetics of meptazinol or meptazinol PABA carbamate, rats (Example 30); details: for Fabs: meptazinol; for clearance: CL; for Vd: Vss
Method: Blood samples were taken at various times after administration and submitted to analysis for the parent drug and pro-drug using a validated LC-MS-MS assay. Pharmacokinetic parameters derived from the plasma analytical data were determined using Win Nonlin.

[8] = dog, plasma, iv, 1 mg/kg, iv meptazinol 1 mg free base equivalents/kg, individual animals
[9] = dog, plasma, iv, 1 mg/kg, iv meptazinol 1 mg free base equivalents/kg, mean
[10] = iv meptazinol 1 mg free base equivalents/kg, individual animals
[11] = meptazinol in plasma, oral meptazinol 1 mg free base equivalents/kg, individual animals
[12] = meptazinol in plasma, oral meptazinol 1 mg free base equivalents/kg, mean
[13] = oral meptazinol 10 mg free base equivalents/kg, individual animals
[14] = oral meptazinol 10 mg free base equivalents/kg, mean
[15] = monkey, plasma, iv, 1 mg/kg, iv meptazinol 1 mg free base equivalents/kg, individual animals
[16] = monkey, plasma, iv, 1 mg/kg, iv meptazinol 1 mg free base equivalents/kg, mean
[17] = read-out: AUC* (mean ngh/mL), AUC0-t
[18] = iv meptazinol 1 mg free base equivalents/kg, rats, individual animals
[19] = meptazinol in plasma, iv meptazinol 1 mg free base equivalents/kg, rats, individual animals
[20] = meptazinol in plasma, oral meptazinol 1 mg free base equivalents/kg, rats, individual animals
[21] = rat, plasma, iv, 1 mg/kg, iv meptazinol 1 mg free base equivalents/kg, rats, individual animals
[22] = rat, plasma, iv, 1 mg/kg, iv meptazinol 1 mg free base equivalents/kg, rats, mean

In the case of CCC1(c2cccc(O)c2)CCCCN(C)C1 (stereo not shown) [meptazinol], the clearance [1, 8] is reported as 67.3 mL/min/kg, the Vd [1, 8] is reported as 4.14 L and the clearance [1, 9] is reported as 62.7 mL/min/kg. The Vd [1, 9] was 3.55 L, the AUC ([1]; dog, plasma, iv, 1 mg/kg, meptazinol in plasma, iv meptazinol 1 mg free base equivalents/kg, individual animals, read-out: AUC) was 247 ng·h/mL and the AUC ([1]; dog, plasma, iv, 1 mg/kg, meptazinol in plasma, iv meptazinol 1 mg free base equivalents/kg, mean, read-out: AUC) was 269 ng·h/mL. It also gave a Cmax ([1]; dog, plasma, po, 1 mg/kg, meptazinol in plasma, oral meptazinol 1 mg free base equivalents/kg, individual animals, read-out: Cmax) of 4.22 ng/mL, an AUC ([1]; dog, plasma, po, 1 mg/kg, meptazinol in plasma, oral meptazinol 1 mg free base equivalents/kg, mean, read-out: AUC) of 15.6 ng·h/mL and a half-life ([1]; dog, plasma, po, 1 mg/kg, meptazinol in plasma, oral meptazinol 1 mg free base equivalents/kg, mean, read-out: t½ (converted)) of 108 min. The CL [1, 10] was 60.8 mL/min/kg and 57.2 mL/min/kg and 54.5 mL/min/kg and 73.3 mL/min/kg, the Co ([1]; meptazinol in plasma, iv meptazinol 1 mg free base equivalents/kg, individual animals) was 340 ng/mL and 308 ng/mL and 350 ng/mL and 402 ng/mL and 477 ng/mL and the Co ([1]; meptazinol in plasma, iv meptazinol 1 mg free base equivalents/kg, mean) was 375 ng/mL. For the same compound, the AUC [1, 11] was 15.1 ng · h/mL and 15.8^b ng · h/mL and 23.3 ng · h/mL and 19.6^b ng · h/mL and 8.52 ng · h/mL, the Cmax [1, 11] was 6.82 ng/mL and 6.79 ng/mL and 5.04 ng/mL and 3.52 ng/mL and the “T>50%Cmax” value [1, 11] was 2.5 h and 1.1 h and 1.9 h and 2.4 h and 1.8 h. The Tmax [1, 11] was 0.5 h and 1 h (2×), the Cmax [1, 12] was 5.28 ng/mL and the “T>50%Cmax” value [1, 12] was 1.9 h. The Fabs ([1]; oral meptazinol 1 mg free base equivalents/kg, individual animals) was 6.1% and 5.8% and 8.0% and 6.4% and 3.8%, the Fabs ([1]; oral meptazinol 1 mg free base equivalents/kg, mean) was 6.0±2.1% and 6.0% and the IC50 [2] was 1500 nM. For the same compound, the oral bioavailability [3] was under 10%, the CL [4, 10] was 66.2 mL/min/kg and 73.2 mL/min/kg and 77.3 mL/min/kg and 70.3 mL/min/kg and the Vss [4, 10] was 4.88 L and 4.11 L and 4.96 L. The AUC [4, 10] was 252 ng·h/mL and 228 ng·h/mL and 215 ng·h/mL and 237 ng·h/mL, the C0 [4, 10] was 334 ng/mL and 226 ng/mL (2×) and 369 ng/mL and the t½ [4, 10] was 49.8 min and 40.8 min and 52.2 min. The AUC [4, 13] was 47.7 ng·h/mL and 37.7 ng·h/mL and 38.2 ng·h/mL and 47.8 ng·h/mL, the Cmax [4, 13] was 18.3 ng/mL and 19.8 ng/mL and 22.5 ng/mL and 19 ng/mL and the “T>50%Cmax” value [4, 13] was 0.9 h and 2.4 h and 1.7 h and 1.4 h and 2.3 h. The Tmax [4, 13] was 120 min and 60 min, the t½ [4, 13] was 48 min and 54 min and 42 min and the “T>50%Cmax” value [4, 14] was 1.7 h. For the same compound, the Fabs [4, 13] was 1.6% (3×) and 2.0% (2×), the Fabs [4, 14] was 1.8% and the clearance [4, 15] was 73.7 mL/min/kg. For the same compound, the Vd [4, 15] was 4.83 L, the clearance [4, 16] was 72.2 mL/min/kg and the Vd [4, 16] was 4.72 L. For the same compound, the AUC ([4]; monkey, plasma, iv, 1 mg/kg, iv meptazinol 1 mg free base equivalents/kg, individual animals, read-out: AUC) was 227 ng·h/mL, the C0 ([4]; monkey, plasma, iv, 1 mg/kg, iv meptazinol 1 mg free base equivalents/kg, individual animals, read-out: C0) was 211 ng/mL and the half-life [4, 15] was 48.6 min. It also gave an AUC ([4]; monkey, plasma, iv, 1 mg/kg, iv meptazinol 1 mg free base equivalents/kg, mean, read-out: AUC) of 232 ng·h/mL, a C0 ([4]; monkey, plasma, iv, 1 mg/kg, iv meptazinol 1 mg free base equivalents/kg, mean, read-out: C0) of 273 ng/mL and a half-life [4, 16] of 50.4 min. For the same compound, the AUC ([4]; monkey, plasma, po, 10 mg meptazinol free base equivalents/kg, oral meptazinol 10 mg free base equivalents/kg, individual animals, read-out: AUC) was 39.4 ng·h/mL, the Cmax ([4]; monkey, plasma, po, 10 mg meptazinol free base equivalents/kg, oral meptazinol 10 mg free base equivalents/kg, individual animals, read-out: Cmax) was 26.1 ng/mL and the half-life ([4]; monkey, plasma, po, 10 mg meptazinol free base equivalents/kg, oral meptazinol 10 mg free base equivalents/kg, individual animals) was 60 min. For the same compound, the AUC ([4]; monkey, plasma, po, 10 mg meptazinol free base equivalents/kg, oral meptazinol 10 mg free base equivalents/kg, mean, read-out: AUC) was 42.2 ng·h/mL, the Cmax ([4]; monkey, plasma, po, 10 mg meptazinol free base equivalents/kg, oral meptazinol 10 mg free base equivalents/kg, mean, read-out: Cmax) was 21.1 ng/mL and the half-life ([4]; monkey, plasma, po, 10 mg meptazinol free base equivalents/kg, oral meptazinol 10 mg free base equivalents/kg, mean) was 48 min. The Tmax ([4]; monkey, plasma, po, 10 mg meptazinol free base equivalents/kg, oral meptazinol 10 mg free base equivalents/kg, median value, read-out: Tmax) was 30 min, the Cmax [5] was 4 ± 5.5 ng/mL and the AUC(0-t) [5, 17] was 5.4 ± 5.9 ng·h/mL. The Cmax [6] was 1.3 ± 0.3 ng/mL, the AUC(0-t) [6, 17] was 3.1 ± 0.7 ng·h/mL and the CL [7, 18] was 75.2 mL/min/kg and 88.3 mL/min/kg and 89.3 mL/min/kg and 92.2 mL/min/kg. The Vss [7, 18] was 4.0 L and 5.4 L (2×) and 5.1 L, the AUC [7, 19] was 222 ng·h/mL and 189 ng·h/mL and 187 ng·h/mL and 181 ng·h/mL and the C0 [7, 19] was 246 ng/mL and 259 ng/mL and 267 ng/mL and 244 ng/mL. The t½ [7, 19] was 36 min and 42 min, the “AUC*” value ([7]; meptazinol in plasma, oral meptazinol 1 mg free base equivalents/kg, rats, calculated based on half-life from previous iv study, individual animals) was 3.1 ng·h/mL and 2.8 ng·h/mL and 4.9 ng·h/mL and the Cmax [7, 20] was 1.12 ng/mL and 1.49 ng/mL and 1.44 ng/mL. For the same compound, the “t½*” value [7, 20] was 54 min, the Fabs ([7]; oral meptazinol 1 mg free base equivalents/kg, rats, individual animals) was 1.6% (2×) and 1.5% and 2.6% and the Fabs ([7]; oral meptazinol 1 mg free base equivalents/kg, rats, mean) was 1.8±0.5% and 1.8%. For the same compound, the AUC ([7]; rat, plasma, iv, 1 mg/kg, AUC, meptazinol in plasma, iv meptazinol 1 mg free base equivalents/kg, rats, individual animals) was 161 ng·h/mL, the AUC ([7]; rat, plasma, iv, 1 mg/kg, AUC, meptazinol in plasma, iv meptazinol 1 mg free base equivalents/kg, rats, mean) was 188 ng·h/mL and the C0 ([7]; rat, plasma, iv, 1 mg/kg, C0, meptazinol in plasma, iv meptazinol 1 mg free base equivalents/kg, rats, individual animals) was 191 ng/mL. For the same compound, the C0 ([7]; rat, plasma, iv, 1 mg/kg, C0, meptazinol in plasma, iv meptazinol 1 mg free base equivalents/kg, rats, mean) was 241 ng/mL, the clearance [7, 21] was 104 mL/min/kg and the clearance [7, 22] was 89.7 mL/min/kg. The Vd [7, 21] was 6.8 L, the Vd [7, 22] was 5.3 L and the half-life ([7]; rat, plasma, iv, 1 mg/kg, t½, meptazinol in plasma, iv meptazinol 1 mg free base equivalents/kg, rats, individual animals) was 48 min. For the same compound, the half-life ([7]; rat, plasma, iv, 1 mg/kg, t½, meptazinol in plasma, iv meptazinol 1 mg free base equivalents/kg, rats, mean) was 42 min, the Tmax ([7]; rat, plasma, po, 1 mg/kg) was 30 min and the AUC ([7]; rat, plasma, po, 1 mg/kg, AUC*, meptazinol in plasma, oral meptazinol 1 mg free base equivalents/kg, rats, calculated based on half-life from previous iv study, individual animals) was 2.9 ng·h/mL. It also gave an AUC ([7]; rat, plasma, po, 1 mg/kg, AUC*, meptazinol in plasma, oral meptazinol 1 mg free base equivalents/kg, rats, calculated based on half-life from previous iv study, mean) of 3.4 ng·h/mL, a Cmax ([7]; rat, plasma, po, 1 mg/kg, Cmax, meptazinol in plasma, oral meptazinol 1 mg free base equivalents/kg, rats, individual animals) of 1.93 ng/mL and a Cmax ([7]; rat, plasma, po, 1 mg/kg, Cmax, meptazinol in plasma, oral meptazinol 1 mg free base equivalents/kg, rats, mean) of 1.6 ng/mL. The half-life ([7]; rat, plasma, po, 1 mg/kg, t½*, meptazinol in plasma, oral meptazinol 1 mg free base equivalents/kg, rats, mean) was 78 min.
